# Measured values as given in patent US20240398737A1, “FUNCTIONALIZED LONG-CHAIN HYDROCARBON MONO- AND DI-CARBOXYLIC ACIDS AND DERIVATIVES THEREOF, AND THEIR USE FOR THE PREVENTION OR TREATMENT OF DISEASE” (Espervita Therapeutics, Inc., priority 2021, published 2024).
# Key:
# [1] = Synthesis of CoA derivatives in rat liver microsomes (LCMS detection); assay type: in vitro ADME; settings: 1 mM substrate, 30 min sample
# Method: Reaction products were eluted using the gradient shown below: […]
# Formation and detection of the Co-A derivatives of Compounds 1-32, 1-61, I-1 or III-1 in rat liver microsomes: 1 mM of each compound (Compounds I-32, I-61, I-1 or III-1) or palmitic acid (control) were used as substrate in the rat microsomal preparation for 0 and 30 min and extracted as described above. […] Further confirmation was obtained by exposing the compound to a collision energy causing the characteristic neutral loss of 3′-phosphonucleoside diphosphate (507 Da) producing the fragment ion 499.3 m/z. There was no evidence of the CoA derivative in the time 0 min sample.
# [2] = Single and repeat dose plasma and tissue pharmacokinetics in male C57BL/6 mice; assay type: in vivo, mouse; settings: for Bioavailability in brain compared to liver (fold lower): 20 mg/kg PO, male C57BL/6 mice; for Cmax / Tmax / AUC(0-t): male, C57BL/6, mouse, po
# Excerpt: Materials and methods. The study involved two arms: a single dose pharmacokinetic study and a 4-day repeated-dose pharmacokinetic study. For each arm, 56 inbred male C57BL/6 mice, aged at 6-7 week, were included. All animals were purchased from Charles River Lab (CRL, MA). Upon their arrival, they were kept in special-pathogen-free environment all the time. Briefly, they were housed in group on corncob bedding (ScottPharma, MA) in Innovive® caging system (Innovive, CA) on a 12-hour light-dark cycle (0700-1900) at 68-74° F. and 30-70% humidity. They were allowed continually to access water and regular rodent Purina 5001 diet (ScottPharma, MA) ad libitum and to acclimate in the facility for 5 days. Animal handling and procedures were conducted under the protocols and/or guidelines approved by the Institutional Animal Care and Use Committee (IACUC) of […] Biosciences, Inc. […] Also, 2× drug vehicle (3% CMC+0.4% Tween-20) was prepared and stored at 4° C. for a week. On the day of injection, 1 ml frozen 2× aqueous stock solution (20 mg/ml drug solution) aliquot is thawed and mix with another 1 ml 2× drug vehicle (3% Carboxymethyl cellulose+0.4% Tween 20) to prepare 10 mg/ml drug solution. A 25 g mouse would receive 250 μl of 10 mg/ml solution for a dose of 100 mg/kg. Lower concentrations can be achieved by further diluting the 10 mg/ml in 1× vehicle solution with 1× vehicle prepared with milliQ water. On each dosing day, both compound stocks and 2× vehicle were warmed to room temperature and was mixed at 1:1 ratio, given to a concentration of 10 mg/mL. Then 1:5-fold dilutions were obtained with 1× vehicle to 2 mg/mL. Dosing volume at 10 mL/kg (final dosage: 20 mg/kg) in the morning. Route of administration is oral gavage (volume of 10 ml/kg body weight). Study Design. In each group 4 male 6-7-week-old C57BL/6 mice were used. Doses were administered once daily via oral gavage for either a day (single dose arm, QDx1) or 4 consecutive days (repeated dose arm, QDx4) (FIG. 24). Blood, half of brain hemisphere, and one lobe of liver samples were collected from all animals of Day 1 (QDx1 arm) at pre-dose and 0.25, 2, 4, 8, 24 and 36 hours post dose, or Day 4 (QDx4 arm) at pre-dose and 0.25, 2, 4, 8, 24 and 48 hours post dose. Blood samples were collected by cardiac puncture. The blood samples were maintained in wet ice first and centrifuged to obtain plasma (2000×g, 4° C., 5 min). All three samples from each mouse were analyzed for either Compound I-1 or Compound I-32 contents by Integrated Analytical Solutions (Berkeley, CA) and the results were used for the generation of the pharmacokinetic graphs. Sample collection, storage, bioanalysis and statistical analysis. All plasma and tissue samples were analyzed by discovery grade bioanalytical method developed for estimation of each test compound in plasma and tissue samples using LC-MS/MS systems. Plasma samples were prepared as follows. Three volumes of acetonitrile containing internal standard was added to one volume of plasma to precipitate proteins. Samples were centrifuged (3000×g for 10 min) and supernatant removed for analysis by LC-MS/MS. Calibration standards and quality controls were made by preparation of a 1 mg/mL stock solution in MeOH and subsequently a series of working solutions in MeOH:water (1:1, v/v) which were spiked into blank plasma to yield a series of calibration standard samples in the range of 1.0 ng/mL to 10 μg/mL. All incurred PK/PD plasma samples were treated identically to the calibration standards and quality control samples. LC-MS/MS analysis was performed utilizing multiple reaction monitoring for detection of characteristic ions for each drug candidate, additional related analytes and internal standard. Tissue samples were prepared as follows. Three volumes of PBS buffer (pH 7.4) were added to one volume of each tissue sample which was then homogenized to obtain each tissue homogenate sample. […]
# GSK3b = GSK3b (Homo sapiens (Human), UniProt P49841); experiment: Wild type kinase screen: GSK3b; assay type: biochemical; settings: compound at 10 μM, 10 μM ATP, Data 1 and Data 2 duplicates
# GSK3b, sequence (P49841 whole entry, species assumed): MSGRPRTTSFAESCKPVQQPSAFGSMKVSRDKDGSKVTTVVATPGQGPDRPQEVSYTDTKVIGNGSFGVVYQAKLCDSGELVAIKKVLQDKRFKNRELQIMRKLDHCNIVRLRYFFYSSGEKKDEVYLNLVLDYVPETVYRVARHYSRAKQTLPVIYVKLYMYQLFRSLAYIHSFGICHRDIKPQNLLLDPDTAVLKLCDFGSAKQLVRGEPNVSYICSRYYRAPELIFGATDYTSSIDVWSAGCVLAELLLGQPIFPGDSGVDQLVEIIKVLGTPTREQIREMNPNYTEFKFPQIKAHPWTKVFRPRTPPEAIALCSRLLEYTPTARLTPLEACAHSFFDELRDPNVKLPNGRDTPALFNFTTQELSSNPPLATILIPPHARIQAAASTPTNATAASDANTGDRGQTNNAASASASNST
# [3] = brain, 20 mg/kg, mouse brain, QD × 1, value in parentheses marked * (reanalysis per footnote of Tables 8-9)
# [4] = brain, 20 mg/kg, mouse brain, QD × 4, value in parentheses marked * (reanalysis per footnote of Tables 8-9)
# [5] = brain, 20 mg/kg/day, mouse brain, 20 mg/kg/day PO, 4 consecutive days (QD × 4)
# [6] = brain, 20 mg/kg/day, mouse brain, 20 mg/kg/day PO, single dose (QD × 1)
# [7] = liver, 20 mg/kg, mouse liver, QD × 1, value in parentheses: timepoint 0.25 h samples after reanalysis
# [8] = liver, 20 mg/kg, mouse liver, QD × 4, value in parentheses: timepoint 0.25 h samples after reanalysis
# [9] = liver, 20 mg/kg/day, mouse liver, 20 mg/kg/day PO, 4 consecutive days (QD × 4)
# [10] = liver, 20 mg/kg/day, mouse liver, 20 mg/kg/day PO, single dose (QD × 1)
# [11] = plasma, 20 mg/kg, mouse plasma, QD × 1, value in parentheses: timepoint 0.25 h samples after reanalysis
# [12] = plasma, 20 mg/kg, mouse plasma, QD × 4, value in parentheses: timepoint 0.25 h samples after reanalysis
# [13] = plasma, 20 mg/kg/day, mouse plasma, 20 mg/kg/day PO, 4 consecutive days (QD × 4)
# [14] = plasma, 20 mg/kg/day, mouse plasma, 20 mg/kg/day PO, single dose (QD × 1)
# [15] = mouse brain, 20 mg/kg/day PO, 4 consecutive days (QD × 4)
# [16] = mouse brain, 20 mg/kg/day PO, single dose (QD × 1)
# [17] = mouse liver, 20 mg/kg/day PO, 4 consecutive days (QD × 4)
# [18] = mouse liver, 20 mg/kg/day PO, single dose (QD × 1)
smiles,measurement,setting,value
"CC(C)(CCCCc1ccc(CCCCC(C)(C)C(=O)O)cc1)C(=O)O [Compound I-1, 6-[4-(5-carboxy-5-methylhexyl)-phenyl]-2,2-dimethylhexanoic acid]","Formation of the CoA derivative (LCMS detection, fragmentation confirmation)",[1],detected
same,Bioavailability in brain compared to liver (fold lower),[2],300-400 fold
same,Cmax,[2]; [3],1020 ng/g
same,Tmax,[2]; [3],15 min
same,Cmax,[2]; [4],1390 ng/g
same,Tmax,[2]; [4],15 min
same,Cmax,[2]; [5],168 ng/g
same,Tmax,[2]; [5],240 min
same,Cmax,[2]; [6],492 ng/g
same,Tmax,[2]; [6],120 min
same,Cmax,[2]; [7],21500 ng/g
same,Tmax,[2]; [7],15 min
same,Cmax,[2]; [8],46600 ng/g
same,Tmax,[2]; [8],15 min
same,Cmax,[2]; [9],30900 ng/g
same,Tmax,[2]; [9],15 min
same,Cmax,[2]; [10],27000 ng/g
same,Tmax,[2]; [10],15 min
same,AUC(0-t),[2]; [11],1670 µg·h/mL
same,Cmax,[2]; [11],90 µg/mL
same,Tmax,[2]; [11],15 min
same,AUC(0-t),[2]; [12],1090 µg·h/mL
same,Cmax,[2]; [12],76.1 µg/mL
same,Tmax,[2]; [12],15 min
same,AUC(0-t),[2]; [13],1170 µg·h/mL
same,Cmax,[2]; [13],102 µg/mL
same,Tmax,[2]; [13],15 min
same,AUC(0-t),[2]; [14],1380 µg·h/mL
same,Cmax,[2]; [14],102 µg/mL
same,Tmax,[2]; [14],15 min
same,AUC0-t (h*ng/g),[2]; [15],"1,220 h*ng/g"
same,AUC0-t (h*ng/g),[2]; [16],"1,183 h*ng/g"
same,AUC0-t (h*ng/g),"[2]; mouse brain, QD × 1, value in parentheses marked * (reanalysis per footnote of Tables 8-9)","(2,091)* h*ng/g"
same,AUC0-t (h*ng/g),"[2]; mouse brain, QD × 4, value in parentheses marked * (reanalysis per footnote of Tables 8-9)","(3,995)* h*ng/g"
same,AUC0-t (h*ng/g),[2]; [17],"687,414 h*ng/g"
same,AUC0-t (h*ng/g),[2]; [18],"425,184 h*ng/g"
same,AUC0-t (h*ng/g),"[2]; mouse liver, QD × 1, value in parentheses: timepoint 0.25 h samples after reanalysis","(469,726)* h*ng/g"
same,AUC0-t (h*ng/g),"[2]; mouse liver, QD × 4, value in parentheses: timepoint 0.25 h samples after reanalysis","(718,455)* h*ng/g"
same,% Enzyme Activity (relative to DMSO controls),GSK3b,82.73%
"CC(C)(CCCCc1cccc(CCCCC(C)(C)C(=O)O)c1)C(=O)O [Compound I-32, 6-[3-(5-carboxy-5-methylhexyl)-phenyl]-2,2-dimethylhexanoic acid]","Formation of the CoA derivative (LCMS detection, fragmentation confirmation)",[1],detected
same,Bioavailability in brain compared to liver (fold lower),[2],300-400 fold
same,Cmax,[2]; [5],604 ng/g
same,Tmax,[2]; [5],240 min
same,Cmax,[2]; [6],362 ng/g
same,Tmax,[2]; [6],120 min
same,Cmax,[2]; [9],43000 ng/g
same,Tmax,[2]; [9],240 min
same,Cmax,[2]; [10],25100 ng/g
same,Tmax,[2]; [10],120 min
same,AUC(0-t),[2]; [13],758 µg·h/mL
same,Cmax,[2]; [13],76.5 µg/mL
same,Tmax,[2]; [13],240 min
same,AUC(0-t),[2]; [14],240 µg·h/mL
same,Cmax,[2]; [14],50.2 µg/mL
same,Tmax,[2]; [14],120 min
same,AUC0-t (h*ng/g),[2]; [15],"6,304 h*ng/g"
same,AUC0-t (h*ng/g),[2]; [16],"1,527 h*ng/g"
same,AUC0-t (h*ng/g),[2]; [17],"100,6991 h*ng/g"
same,AUC0-t (h*ng/g),[2]; [18],"405,934 h*ng/g"
same,% Enzyme Activity (relative to DMSO controls),GSK3b,72.67%
